This note sets out measurements from patent US8961959B2, “Glucosylceramide synthase inhibitors and therapeutic methods using the same” (The Regents of the University of Michigan, priority 2011, dated 2015).

Data set [1] concerns the target T1, glucosylceramide synthase (GCS) (Canis lupus familiaris, UniProt A0A8I3MXG6).
T1 construct: Madin-Darby canine kidney (MDCK) cell homogenates (120 μg of protein) were incubated; endogenous in cells; host or cells: MDCK (Madin-Darby canine kidney) cell homogenate
T1 sequence (A0A8I3MXG6 1-394): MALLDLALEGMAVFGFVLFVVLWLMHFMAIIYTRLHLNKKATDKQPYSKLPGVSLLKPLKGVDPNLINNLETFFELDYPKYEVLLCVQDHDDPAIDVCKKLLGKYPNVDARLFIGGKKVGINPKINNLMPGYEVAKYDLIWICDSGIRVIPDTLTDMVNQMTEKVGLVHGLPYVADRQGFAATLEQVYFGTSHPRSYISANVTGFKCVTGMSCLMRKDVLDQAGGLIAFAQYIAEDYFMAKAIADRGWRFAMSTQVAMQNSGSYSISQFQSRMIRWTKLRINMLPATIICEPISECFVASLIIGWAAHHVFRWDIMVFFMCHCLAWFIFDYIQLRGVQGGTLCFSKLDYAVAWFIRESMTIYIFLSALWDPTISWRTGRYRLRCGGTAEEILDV
As to the kind of experiment: GCS activity, broken cell (MDCK cell homogenate) assay. It is filed as biochemical, canine. The method, then: Enzyme activity was measured as described previously (9). Madin-Darby canine kidney (MDCK) cell homogenates (120 μg of protein) were incubated with uridine diphosphate-[^3H]glucose (100,000 cpm) and liposomes consisting of 85 μg of octanoylsphingosine, 570 μg of dioleoylphosphatidylcholine, and 100 μg of sodium sulfatide in a 200 μL reaction mixture and kept for 1 h at 37° C.

The target of the next data set is T2, MDR1 (Homo sapiens, UniProt P08183).
T2 construct: host or cells: MDCKII (canine kidney) cells retrovirally transduced with human MDR-1 cDNA
T2 sequence (P08183 whole entry): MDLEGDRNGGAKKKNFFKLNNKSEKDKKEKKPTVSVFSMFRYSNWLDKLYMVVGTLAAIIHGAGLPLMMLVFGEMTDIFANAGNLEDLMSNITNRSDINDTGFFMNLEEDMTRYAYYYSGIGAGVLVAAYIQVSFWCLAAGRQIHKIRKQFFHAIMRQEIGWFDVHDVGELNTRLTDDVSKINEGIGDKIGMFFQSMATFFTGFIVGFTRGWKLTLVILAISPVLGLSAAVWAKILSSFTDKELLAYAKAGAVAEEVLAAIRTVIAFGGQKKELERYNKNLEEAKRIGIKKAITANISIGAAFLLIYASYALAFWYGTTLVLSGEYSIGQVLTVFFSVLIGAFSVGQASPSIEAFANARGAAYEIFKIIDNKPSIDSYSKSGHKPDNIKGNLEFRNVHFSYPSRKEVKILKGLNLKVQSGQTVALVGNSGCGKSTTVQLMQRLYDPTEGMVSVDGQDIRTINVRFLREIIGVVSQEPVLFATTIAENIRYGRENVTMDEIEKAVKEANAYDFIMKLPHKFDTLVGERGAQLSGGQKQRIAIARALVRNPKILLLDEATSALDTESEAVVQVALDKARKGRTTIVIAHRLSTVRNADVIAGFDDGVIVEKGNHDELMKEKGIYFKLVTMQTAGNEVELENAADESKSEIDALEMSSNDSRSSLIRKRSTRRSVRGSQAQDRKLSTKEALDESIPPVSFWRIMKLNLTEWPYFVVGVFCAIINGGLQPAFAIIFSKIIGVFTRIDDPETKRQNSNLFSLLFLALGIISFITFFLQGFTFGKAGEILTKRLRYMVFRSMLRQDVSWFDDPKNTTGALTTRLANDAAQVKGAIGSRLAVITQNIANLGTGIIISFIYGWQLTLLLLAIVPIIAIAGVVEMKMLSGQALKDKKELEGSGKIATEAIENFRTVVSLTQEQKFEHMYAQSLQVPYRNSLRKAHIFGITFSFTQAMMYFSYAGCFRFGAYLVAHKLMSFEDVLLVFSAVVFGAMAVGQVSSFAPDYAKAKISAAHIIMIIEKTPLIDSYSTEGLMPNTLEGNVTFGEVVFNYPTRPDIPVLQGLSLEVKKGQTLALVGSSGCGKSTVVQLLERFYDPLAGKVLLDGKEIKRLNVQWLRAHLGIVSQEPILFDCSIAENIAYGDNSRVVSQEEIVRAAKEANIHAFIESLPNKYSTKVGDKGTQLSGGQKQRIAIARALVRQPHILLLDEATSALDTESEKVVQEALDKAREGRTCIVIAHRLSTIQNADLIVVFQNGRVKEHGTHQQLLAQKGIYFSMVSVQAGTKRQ
The data set can be described thus: [3H]Vinblastine transport in MDR1-MDCKII cells. The data set is classed as cell-based. The conditions noted are these: for [3H]vinblastine uptake into MDR1-MDCKII cells: 1-100 μM, 2 h, relative to vehicle. The protocol:
MDR1- and WT-MDCKII cells were grown to confluence on Transwell filters (12 well plates) in DMEM+10% FBS. […] Uptake was measured over 2 hours at 37° C. At that time, uptake was stopped by washing each side of the membrane 3× with ice-cold PBS. Vinblastine uptake into the cells, after correction for any remaining adherent extracellular contamination, was calculated as described previously (11). To investigate the effect of experimental drugs on MDR-mediated transport, those compounds were added to the apical chamber (1-100 μM) during vinblastine uptake and the uptake results expressed as a % of that with vehicle alone.

A further data set has as its system WT-MDCKII cells. The data set can be described thus: GCS inhibition (GlcCer production) in whole wild-type MDCKII cells. The data set is classed as cell-based, canine. The conditions noted are these: for IC50: Canis lupus familiaris, MDCK-II, 24 h. The method, then:
Parental (WT-)MDCKII cells and MDCKII cells retrovirally transduced with human MDR-1 cDNA were obtained from the Netherlands Cancer Institute. Both cell lines were routinely maintained in medium consisting of Opti-MEM/F 12 (1:1), 5% FBS, 100 U/mL of penicillin, 100 μg/mL streptomycin and […] L-glutamine. MDCKII cells were newly thawed from frozen ampules every two months. Protein levels of MDR1 in MDR1-MDCKII cells were measured monthly, and MDR1-MDCKII cell passages were immediately terminated when a reduction of MDR1 levels was observed by Western blot using anti-human MDR1 monoclonal antibody (Abcam C219).
Stock solutions of water-insoluble glycosphingolipid inhibitors (100 mM) were prepared by dissolving each inhibitor into 100% ethanol as previously described (3). The inhibitor-ethanol solutions then were diluted 50× into 2 mM delipidated bovine serum albumin-phosphate buffered saline solution to make water-soluble glycosphingolipid inhibitor-bovine serum albumin complexes. The inhibitor-bovine serum album complexes were sterile-filtered and stored at −20° C. Prior to use, portions of the inhibitor-bovine serum albumin complexes were further diluted with Opti-F12 to make treatment solutions. Equal amounts of bovine serum albumin and ethanol were added into the control cultures. WT and MDR1-MDCKII cells (5×10^5) were seeded into 10-cm culture dishes containing 10 ml of Opti-F12 with 5% FBS. After 24 hours, the medium was replaced with fresh serum-free Opti-F12 medium, and cells were exposed to candidate GCS inhibitors at concentrations of 0, 1, 3, 10, 30, 100 and 300 nM for 24 hours.
Following inhibitor treatment, whole cellular lipids of wild type and MDR1-MDCKII cells were extracted as previously described in detail (10). Briefly, cells were washed with ice-cold phosphate buffered saline, fixed by methanol, and collected with rubber scraper. Chloroform was then added to yield a theoretical ratio of chloroform:methanol:water at 1:2:0.8 (v/v/v) to form a mono-phase. Cell debris and proteins were removed by centrifugation at 2200×g for 30 min. The supernatants were portioned by adding chloroform and 0.9% NaCl. The lower organic phases containing neutral glycosphingolipids lipids were washed with methanol and 0.9% NaCl, and subjected to base- and acid-hydrolysis (10). A portion of purified glycosphingolipids normalized to 100 nmol of total phospholipids was analyzed by high performance thin layer chromatography. The thin layer chromatography separations were processed twice. The plate pretreated with 1% sodium borate was first developed in a solvent system consisting of chloroform/methanol (98/2, v/v). After air drying, the plate was then developed in a solvent system containing chloroform/methanol/water (70/30/4, v/v/v). The levels of glucosylceramide were detected by charring with 8% cupric sulfate in 8% phosphoric acid, and quantified by densitometric scanning using ImageJ, NIH Image. Image data was analyzed, and the IC50 of each inhibitor was calculated using GraphPad Prism (version 5.03).

Where [2] appears, read: inhibition of GlcCer production in whole wild-type MDCKII cells, read-out: WT-MDCK IC50.

Entries after “also recorded” stand apart in the source; their conditions may differ. Where two headings read alike, the source gives them in different places.

What is called IC50 is the concentration at which inhibition is half-maximal. With `O=C(CC1Cc2ccccc2C1)N[C@H](CN1CCCC1)[C@H](O)c1ccc2c(c1)OCCO2` [Compound 3h, 2-(2,3-dihydro-1H-inden-2-yl)-N-((1R,2R)-1-(2,3-dihydrobenzo[b][1,4]dioxin-6-yl)-1-hydroxy-3-(pyrrolidin-1-yl)propan-2-yl)acetamide], the IC50 turned out to be 27 nM in data set [1] and 15.3 nM with WT-MDCKII cells (setting [2]). Moreover, the “inhibition of GCS” value in data set [1] (in words) is “low nanomolar concentrations”. Also, the “[3H]vinblastine uptake into MDR1-MDCKII cells” value on MDR1 is on record as “no significant dose dependent change”. For the same compound, the “interaction with / recognition by MDR1” value on MDR1 (assessed by GCS IC50 shift and vinblastine uptake assays) is reported as “little to no apparent recognition by MDR1; also recorded: least interaction with MDR”.
For the compound `CCCCCCCC(=O)N[C@H](CN1CCCC1)[C@H](O)c1ccc2c(c1)OCCO2` [Compound 3a, N-((1R,2R)-1-(2,3-dihydrobenzo-[b][1,4]dioxin-6-yl)-1-hydroxy-3-(pyrrolidin-1-yl)propan-2-yl)octanamide, reference compound], the IC50 in data set [1] was 149 nM; with WT-MDCKII cells (WT-MDCKII cells, read-out: IC50 for reduction in GlcCer levels, WT cells), 13.7 nM; with WT-MDCKII cells (setting [2]), 13.7 nM. Moreover, the “[3H]vinblastine uptake into MDR1-MDCKII cells” value at MDR1 was “dose-dependent increase”. Besides, the “potency in whole cells versus broken cells” value in the data set on WT-MDCKII cells (broken cell IC50 versus whole WT-MDCKII IC50) is approximately 10 fold.
